Measurements taken from patent publication EP4813381A1, “PHARMACEUTICAL USE OF GUAIANE SESQUITERPENE DERIVATIVE” (Nanjing University Of Chinese Medicine, priority 2023, dated 2025).

Key:
MDSCs and T cells = assay: T cell proliferation in a co-culture model of MDSCs and T cells (flow cytometry); type: cell-based, mice; details: MDSCs treated with 1 µM compound for 12 h, 48 h co-culture with T cells (1:1), compared to the control group
Experimental: Under sterile conditions, the tibia was removed, both ends of the bone were cut, and bone marrow was repeatedly flushed into a 15 mL centrifuge tube using a 1 mL syringe filled with culture medium. Centrifuge at 1600 rpm for 5 min to collect bone marrow cells. […] The spleen cell suspension was then transferred into a 15 mL centrifuge tube. Centrifuge at 1600 rpm for 5 min to collect T cells. Wash twice with 1×PBS. Resuspend the centrifuged T cells in 1 mL PBS and add 1 mL of 10 µM CFDA-SE solution. Incubate at room temperature for 8 min. […] After drug administration, collect MDSC cells into centrifuge tubes. Centrifuge at 1600 rpm for 5 min, remove supernatant, resuspend in 1 mL fresh medium, and plate. Add 1 mL stimulated activated T cells (1:1 ratio) for 48 h co-culture. After incubation, collect cells into centrifuge tubes, wash twice with PBS, and incubate with Fc antibody at room temperature in the dark for 10 min. Add CD3-labeled flow cytometry antibody and incubate at 4 °C in the dark for 30 min. After incubation, wash cells with PBS, resuspend in 300 µL PBS, and analyze by flow cytometry.

[1] = Water solubility testing of compounds (HPLC); details: deionized water, 37 °C water bath
[2] = Conversion rate of salt-form prodrugs to parent compound in HEPES buffer solution; type: physicochemical; details: conversion to Compound 1, HEPES buffer pH 7.4, 37 °C
Experimental: Adjust the pH to 7.4 using 0.5 M NaOH, then dilute to a final volume 100 mL with distilled water.
(§1) Sample Analysis: Dissolve 0.6 mg of the compound in 250 µl of deionized water separately. Add 250 µl of mouse serum or HEPES 7.4 solution to the sample, incubate at a constant temperature of 37 °C, and collect samples at different time points. Pipette 20 µl of the sample to an EP tube, add 60 µl of methanol, vortex to mix thoroughly, and centrifuge at 12,000 rpm at 4 °C for 10 min. At 1 h, 2 h, 4 h, 8 h, and 12 h respectively, collect the supernatant for HPLC analysis. Inject 10 µL of sample and record the corresponding peak areas.

[3] = Conversion rate of salt-form prodrugs to parent compound in mouse plasma; type: in vitro ADME; details: conversion to Compound 1, mouse plasma, 37 °C
Experimental: Pharmaceutically acceptable salts of guaiane-type sesquiterpene lactone derivatives were selected and evaluated for their conversion rates to Compound 1 and Compound 83 in plasma and HEPES buffer, with results shown in Tables 2-1, 2-2, 3-1, and 3-2.
Plasma Preparation: Collect mouse plasma into an EP tube pre-loaded with sodium heparin, centrifuge at 8000 rpm for 10 minutes at 4°C, and then collect the supernatant.
as §1, with “areas. Chromatographic conditions: Hanbang C18 column (4.6 × 250 mm, 5 µm); mobile phase: acetonitrile: […] ammonium formate solution = 60:40; flow rate 1.0 mL/min; detection wavelength 210 nm; column temperature 30 °C. [drawing 171] Table 2-1. Conversion Rate of Compounds 20-42 to Compound 1 at Different Time Points in HEPES Buffer Solution” for “areas.”

[4] = tested on: renal injury markers (Ngal, Havcr1), inflammatory cytokines (TNF, IL-6, IL-1), fibrosis-related factors (α-Sma, Col1a1, Tgfb1); assay: Folic acid acute kidney injury model in mice: Q-PCR of kidney tissue; type: in vivo, C57BL/6 mice; details: kidney mRNA, acute model (FA)
[5] = tested on: chronic kidney injury induced by unilateral ureteral ligation; assay: Unilateral ureteral ligation (UUO) chronic kidney injury model in mice: Scr and BUN; type: in vivo, C57BL/6 mice; details: serum, 14 days

| SMILES | T-cell proliferation rate (%) (MDSCs and T cells) | Water-solubility [1] [mg/mL] | also measured |
| --- | --- | --- | --- |
| CCOC(=O)[C@@H]1CCCN1C[C@@H]1C(=O)O[C@H]2[C@H]1CC[C@@]1(C)C[C@]13CC[C@@](C)(O)[C@H]23 [compound 4] | ++ (T-cell proliferation rate within the 20-40% range compared to the control group) | 0.822 | – |
| C[C@@]12CC[C@@H]3[C@H](OC(=O)[C@H]3CN3CCNCC3)[C@@H]3[C@]1(CC[C@@]3(C)O)C2 [compound 7] | – | 1.488 | – |
| CCCN(CCC)C[C@@H]1C(=O)O[C@H]2[C@H]1CC[C@@]1(C)C[C@]13CC[C@@](C)(O)[C@H]23 [compound 10] | – | 0.715 | – |
| CCCCN(CCCC)C[C@@H]1C(=O)O[C@H]2[C@H]1CC[C@@]1(C)C[C@]13CC[C@@](C)(O)[C@H]23 [compound 11] | – | 0.682 | – |
| C[C@@]12CC[C@@H]3[C@H](OC(=O)[C@H]3CN3CC4CCCC4C3)[C@@H]3[C@]1(CC[C@@]3(C)O)C2 (some centres unmarked) [compound 13] | – | 0.419 | – |
| C[C@@]12CC[C@@H]3[C@H](OC(=O)[C@H]3CN3CCC4(CCCC4)CC3)[C@@H]3[C@]1(CC[C@@]3(C)O)C2 [compound 15] | – | 0.310 | – |
| C[C@@]12CC[C@@H]3[C@H](OC(=O)[C@H]3CN3CCC4(CC3)CC4)[C@@H]3[C@]1(CC[C@@]3(C)O)C2 [compound 18] | – | 0.584 | – |
| C[C@@]12CC[C@@H]3[C@H](OC(=O)[C@H]3CN3CCCCCCC3)[C@@H]3[C@]1(CC[C@@]3(C)O)C2 [compound 19] | – | 0.623 | – |
| CN(C)C[C@@H]1C(=O)O[C@H]2[C@H]1CC[C@@]1(C)C[C@]13CC[C@@](C)(O)[C@H]23 [compound 21] | – | – | Release rate ([2]; 1 h): 3.3%; Release rate ([2]; 2 h): 10.2%; Release rate ([2]; 4 h): 18.1%; Release rate ([2]; 8 h): 38.9%; Release rate ([2]; 12 h): 51.9%; Release rate ([3]; 1 h): 5.4%; Release rate ([3]; 2 h): 10.7%; Release rate ([3]; 4 h): 17.9%; Release rate ([3]; 8 h): 39.3%; Release rate ([3]; 12 h): 55.4%; α-Sma ([4]; oral 0.1 mg/kg): 1.80±0.42; α-Sma ([4]; oral 1 mg/kg, 1 mg/kg): 0.90±0.21; BUN ([5]; oral gavage 0.1 mg/kg): 17.63±1.13; Scr ([5]; oral gavage 0.1 mg/kg): 157.79±21.92; BUN ([5]; oral gavage 1 mg/kg, 1 mg/kg): 9.45±1.55; Scr ([5]; oral gavage 1 mg/kg, 1 mg/kg): 79.87±13.44 |
| C=C1C(=O)O[C@H]2[C@H]1CCC(C)=C1CC[C@@](C)(OC(=O)N3CCC(C)CC3)[C@@H]12 [compound 84] | ++ (T-cell proliferation rate within the 20-40% range compared to the control group) | – | – |
| C=C1C(=O)O[C@H]2[C@H]1CCC(C)=C1CC[C@@](C)(OC(=O)N3CCN(C)CC3)[C@@H]12 [compound 85] | + (T-cell proliferation rate within the 0-20% range compared to the control group) | – | – |
| C=C1C(=O)O[C@H]2[C@H]1CCC(C)=C1CC[C@@](C)(OC(=O)N3CCN(CC)CC3)[C@@H]12 [compound 86] | ++ (T-cell proliferation rate within the 20-40% range compared to the control group) | – | – |
| C=C1C(=O)O[C@H]2[C@H]1CCC(C)=C1CC[C@@](C)(OC(=O)N3CCOCC3)[C@@H]12 [compound 87] | +++ (T-cell proliferation rate >40% compared to the control group) | – | – |
| C=C1C(=O)O[C@H]2[C@H]1CCC(C)=C1CC[C@@](C)(OC(=O)NCC(C)C)[C@@H]12 [compound 88] | ++ (T-cell proliferation rate within the 20-40% range compared to the control group) | – | – |
| C=C1C(=O)O[C@H]2[C@H]1CCC(C)=C1CC[C@@](C)(OC(=O)NCC(F)F)[C@@H]12 [compound 89] | ++ (T-cell proliferation rate within the 20-40% range compared to the control group) | – | – |
| C=C1C(=O)O[C@H]2[C@H]1CCC(C)=C1CC[C@@](C)(OC(=O)N(C)CCC)[C@@H]12 [compound 90] | ++ (T-cell proliferation rate within the 20-40% range compared to the control group) | – | – |
| C=C1C(=O)O[C@H]2[C@H]1CCC(C)=C1CC[C@@](C)(OC(=O)N(CC)CCC)[C@@H]12 [compound 91] | ++ (T-cell proliferation rate within the 20-40% range compared to the control group) | – | – |
| C=C1C(=O)O[C@H]2[C@H]1CCC(C)=C1CC[C@@](C)(OC(=O)NCCCN3CCOCC3)[C@@H]12 [compound 92] | ++ (T-cell proliferation rate within the 20-40% range compared to the control group) | – | – |
| C=C1C(=O)O[C@H]2[C@H]1CCC(C)=C1CC[C@@](C)(OC(=O)NCCCN3CCN(C)CC3)[C@@H]12 [compound 93] | ++ (T-cell proliferation rate within the 20-40% range compared to the control group) | – | – |
| C=C1C(=O)O[C@H]2[C@H]1CCC(C)=C1CC[C@@](C)(OC(=O)N3CCC(N4CCOCC4)CC3)[C@@H]12 [compound 94] | ++ (T-cell proliferation rate within the 20-40% range compared to the control group) | – | – |
| C=C1C(=O)O[C@H]2[C@H]1CCC(C)=C1CC[C@@](C)(OC(=O)NCCN3CCN(C)CC3)[C@@H]12 [compound 95] | ++ (T-cell proliferation rate within the 20-40% range compared to the control group) | – | – |
| CC1=C2CC[C@@](C)(OC(=O)N3CCCCC3)[C@@H]2[C@H]2OC(=O)[C@@H](CN3CCCC3)[C@@H]2CC1 [compound 96] | + (T-cell proliferation rate within the 0-20% range compared to the control group) | – | – |
| CC1=C2CC[C@@](C)(OC(=O)N3CCCCC3)[C@@H]2[C@H]2OC(=O)[C@@H](CN(C)C)[C@@H]2CC1 [compound 97] | + (T-cell proliferation rate within the 0-20% range compared to the control group) | – | – |
| C=C1C(=O)O[C@H]2[C@H]1CCC(C)=C1CC[C@@](C)(OC(=O)NCCN3CCOCC3)[C@@H]12 [compound 98] | + (T-cell proliferation rate within the 0-20% range compared to the control group) | 202.5 | – |
